The record followed here is patent US5846978A, “HIV protease inhibitors useful for the treatment of AIDS” (Merck & Co., Inc., priority 1997, dated 1998).

SMILES strings stand for the structures.

For assay [1], the target named is T1, HIV protease (Human immunodeficiency virus type 1 group M subtype B, UniProt P12497).
T1 construct: made in house; host or cells: Escherichia coli
In words: Assay for Inhibition of Microbial Expressed HIV Protease (peptide substrate cleavage, HPLC). Type of assay: biochemical. To be noted: for IC50 / % inhibition: pH 5.5, 30° C., 1 hour; for % inhibition: concentration not given. As for the experimental part:
Assay for Inhibition of Microbial Expressed HIV Protease
Inhibition studies of the reaction of the protease expressed in Eschericia coli with a peptide substrate [Val-Ser-Gln-Asn-(betanapthyl)Ala-Pro-Ile-Val, 0.5 mg/mL at the time the reaction is initiated] were in 50 mM Na acetate, pH 5.5, at 30° C. for 1 hour. Various concentrations of inhibitor in 1.0 μl DMSO were added to 25 μl of the peptide solution in water. The reaction is initiated by the addition of 15 μl of 0.33 nM protease (0.11 ng) in a solution of 0.133M Na acetate pH 5.5 and 0.1% bovine serum albumin. The reaction was quenched with 160 μl of 5% phosphoric acid. Products of the reaction were separated by HPLC (VYDAC wide pore 5 cm C-18 reverse phase, acetonitrile gradient, 0.1% phosphoric acid). The extent of inhibition of the reaction was determined from the peak heights of the products. […] [drawing 61] 5(RS)-((4')-2"-furanyl)methylpheny-9(RS)-hydroxy-1(RS)-hydroxy-methyl-3-(2' -methylpropyl-3-azabicyclo[3.3.1]nonan-7-one (Compound 10, Table 1) [drawing 62]

The target in assay [2] is T1, HIV protease. The description is as above. The format is biochemical. The settings on record: concentration printed as (8.8) μM (column head 'Enzyme concentration (μM)'); pH 5.5, 30° C., 1 hour.

As for `CC(C)(C)N1CC2(Cc3ccccc3)CC(=O)CC(C(O)Cc3ccccc3)(C1)C2O` (stereo not shown) [Compound 19], on HIV protease [1] (pH 5.5), the inhibition (in general, the share of the control response that was lost under treatment) at 50 µM stood at 44%.
Consider `CC(C)CN1CC2(CO)CC(=O)CC(Cc3ccccc3)(C1)C2O` (stereo not shown) [Compound 5], for which the inhibition at 250 µM against HIV protease [1] (pH 5.5) turned out to be 63%.
Turning to `O=C1CC2(Cc3ccccc3)CN(CC3CCCO3)CC(C(O)Cc3ccccc3)(C1)C2O` (stereo not shown) [Compound 22], 100 µM produced 84% inhibition against HIV protease [1] (pH 5.5). Besides, inhibition on HIV protease [1] was half-maximal at 10.4 µM (IC50).
With `CCCCC(O)C12CC(=O)CC(Cc3ccccc3)(CN(CC(C)C)C1)C2O` (stereo not shown) [Compound 15], at HIV protease [1] (pH 5.5), testing at 100 µM gave an inhibition of 73%. Half-maximal inhibition against HIV protease [1] (IC50) was put at 14 µM.
In the case of `CC(C)(C)N1CC2(CO)CC(=O)CC(Cc3ccc4ccccc4c3)(C1)C2O` (stereo not shown) [Compound 12], on HIV protease [1] (pH 5.5), the inhibition at 100 µM stood at 43%.
`CC(C)CCN1CC2(CO)CC(=O)CC(Cc3ccccc3)(C1)C2O` (stereo not shown) [Compound 8]: the % inhibition (as a rule, how much of the control response was suppressed) on HIV protease [1] worked out at 68%.
Still for that read-out and setting: then `CC(C)C[C@H](CO)CN1CC2(CO)CC(=O)CC(Cc3ccccc3)(C1)C2O` (stereo partly shown) [Compound 14], with 62%.
With `O=C1CC2(CO)CN(CC3CCCC3)CC(Cc3ccccc3)(C1)C2O` (stereo not shown) [Compound 9], the IC50 – broadly, the concentration that inhibits the measured activity by half – on HIV protease [1] was 89 µM.
In the case of `O=C1CC2(Cc3ccccc3)CN(Cc3ccccc3)CC(C(O)Cc3ccccc3)(C1)C2O` (stereo not drawn) [Compound 18, 5(RS)-methylpheny-9(RS)-hydroxy-1(RS)-((1'-hydroxy)-2'-phenyl)-ethyl-3-benzyl-3-azabicyclo[3.3.1]nonan-7-one], at HIV protease [1] (pH 5.5), the inhibition at 50 µM amounted to 63%.
On HIV protease [1] (pH 5.5), `CC(C)CN1CC2(CO)CC(=O)CC(Cc3ccc(-c4ccco4)cc3)(C1)C2O` (stereo not shown) [Compound 10] displayed an inhibition at 100 µM of 62%.
Take `CC(C)CN1CC2(Cc3ccccc3)CC(=O)CC(C(O)Cc3ccccc3N)(C1)C2O` (stereo not shown) [Compound 20]: the inhibition at 100 µM against HIV protease [1] (pH 5.5) is 93%. Also, the IC50 against HIV protease [1] came to 1.6 µM.
The compound `O=C1CC2(Cc3ccccc3)CN(Cc3ccccc3)CC(C(O)C#Cc3ccccc3)(C1)C2O` (stereo not shown) [Compound 17] registered an inhibition at 50 µM on HIV protease [1] (pH 5.5) of 52%.
`O=C1CC2(CO)CN(CC3CC3)CC(Cc3ccccc3)(C1)C2O` (stereo not shown) [Compound 2] registered an inhibition at 250 µM against HIV protease [1] (pH 5.5) of 56%.
`O=C1CC2(Cc3ccccc3)CN(Cc3ccccc3)CC(C(O)CN3CCCCS3(=O)=O)(C1)C2O` (stereo not shown) [Compound 23] yielded an inhibition at 100 µM against HIV protease [1] (pH 5.5) of 69%. On HIV protease [1], the IC50 amounted to 29 µM.
For `CC(C)(C)N1CC2(CO)CC(=O)CC(Cc3ccccc3Br)(C1)C2O` (stereo not shown) [Compound 11] the same measures were 76% and 30 µM.
At HIV protease [1] (pH 5.5), `CC(C)CN1CC2(CO)CC(=O)CC(Cc3ccc(Br)cc3)(C1)C2O` (stereo not shown) [Compound 6] displayed an inhibition at 250 µM of 71%. Further, at HIV protease [1], the IC50 was 244 µM.
`CC(C)C[C@@H](CO)CN1CC2(CO)CC(=O)CC(Cc3ccccc3)(C1)C2O` (stereo partly shown) [Compound 13]: at HIV protease [1], the “% inhibition” value came to 75% and the IC50 amounted to 44 µM.
As to `CC(C)(C)CN1CC2(CO)CC(=O)CC(Cc3ccccc3)(C1)C2O` (stereo not shown) [Compound 3], at HIV protease [1] (pH 5.5), the inhibition at 250 µM is 69%.
`COc1ccccc1-c1ccc(CC23CC(=O)CC(CO)(CN(CC(C)C)C2)C3O)cc1` (stereo not shown) [Compound 7]: 100 µM produced 56% inhibition against HIV protease [1] (pH 5.5).
On HIV protease [1] (pH 5.5), `O=C1CC2(CO)CN(Cc3ccccc3)CC(Cc3ccccc3)(C1)C2O` (stereo not shown) [Compound 4] returned an inhibition at 250 µM of 82%.
Regarding `CC(C)CN1CC2(Cc3ccccc3)CC(=O)CC(C(O)Cc3ccccc3)(C1)C2O` (stereo not drawn) [Compound 16, 5(RS)-methylphenyl-9(RS)-hydroxy-1(RS)-((1'-hydroxy)-2'-phenyl)-ethyl-3-(2"-methyl)propyl-3-azabicyclo[3.3.1] nonan-7-one], it took 50 µM to reach half-maximal inhibition on HIV protease [1] (IC50). For the same compound, the “% inhibition” value on HIV protease [2] came out at 82%.
Compound `O=C1CC2(Cc3ccccc3)CN(CC3CCCC3)CC(C(O)Cc3ccccc3)(C1)C2O` (stereo not shown) [Compound 21] came in with an inhibition at 25 µM against HIV protease [1] (pH 5.5) of 80%. The compound also came in with a concentration for half-maximal inhibition (IC50) against HIV protease [1] of 1.8 µM.
